Reference: patent publication US9205068B2 (priority 2008, dated 2015)
“And” between values parts separate entries of the source, which are not always exact repeats. Equal values may be shown once.

How the values were obtained:
[1] = tested on: CTA1 dislocation from the ER to the cytosol of HeLa cells; assay type: cell-based
CT = settings: in vivo
[2] = molecular target: catalytic A1 polypeptide of cholera toxin (CTA1) (Vibrio cholerae serotype O1, UniProt P01555); assay type: binding
Shiga toxin = assay type: cell-based
[3] = tested on: CT intoxication of CHO cells; assay type: cell-based
[4] = molecular target: catalytic subunit of pertussis toxin (PTS1) (Bordetella pertussis, UniProt P04977); assay type: binding, B. pertussis; settings: PTS1, 100 μM PBA
catalytic subunit of pertussis toxin (PTS1), sequence (P04977 35-269 limits assumed): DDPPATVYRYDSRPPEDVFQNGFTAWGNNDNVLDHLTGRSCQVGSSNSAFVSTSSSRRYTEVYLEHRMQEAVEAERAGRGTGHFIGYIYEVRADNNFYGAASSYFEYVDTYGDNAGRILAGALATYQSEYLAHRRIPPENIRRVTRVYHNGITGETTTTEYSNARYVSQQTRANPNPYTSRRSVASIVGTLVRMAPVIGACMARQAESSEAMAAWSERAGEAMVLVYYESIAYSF

[5] = in vivo, po; cited from earlier work
[6] = molecular target: cell-binding B subunit of CT (Vibrio cholerae serotype O1, UniProt P01556)
cell-binding B subunit of CT, sequence (P01556 22-124 limits assumed): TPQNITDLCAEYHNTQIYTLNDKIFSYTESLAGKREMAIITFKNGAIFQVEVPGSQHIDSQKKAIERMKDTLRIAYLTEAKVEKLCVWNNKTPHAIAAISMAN

[7] = molecular target: interaction between GRP94 and CTA1 (Homo sapiens, UniProt P14625); assay type: binding
interaction between GRP94 and CTA1, sequence (P14625 22-803 limits assumed): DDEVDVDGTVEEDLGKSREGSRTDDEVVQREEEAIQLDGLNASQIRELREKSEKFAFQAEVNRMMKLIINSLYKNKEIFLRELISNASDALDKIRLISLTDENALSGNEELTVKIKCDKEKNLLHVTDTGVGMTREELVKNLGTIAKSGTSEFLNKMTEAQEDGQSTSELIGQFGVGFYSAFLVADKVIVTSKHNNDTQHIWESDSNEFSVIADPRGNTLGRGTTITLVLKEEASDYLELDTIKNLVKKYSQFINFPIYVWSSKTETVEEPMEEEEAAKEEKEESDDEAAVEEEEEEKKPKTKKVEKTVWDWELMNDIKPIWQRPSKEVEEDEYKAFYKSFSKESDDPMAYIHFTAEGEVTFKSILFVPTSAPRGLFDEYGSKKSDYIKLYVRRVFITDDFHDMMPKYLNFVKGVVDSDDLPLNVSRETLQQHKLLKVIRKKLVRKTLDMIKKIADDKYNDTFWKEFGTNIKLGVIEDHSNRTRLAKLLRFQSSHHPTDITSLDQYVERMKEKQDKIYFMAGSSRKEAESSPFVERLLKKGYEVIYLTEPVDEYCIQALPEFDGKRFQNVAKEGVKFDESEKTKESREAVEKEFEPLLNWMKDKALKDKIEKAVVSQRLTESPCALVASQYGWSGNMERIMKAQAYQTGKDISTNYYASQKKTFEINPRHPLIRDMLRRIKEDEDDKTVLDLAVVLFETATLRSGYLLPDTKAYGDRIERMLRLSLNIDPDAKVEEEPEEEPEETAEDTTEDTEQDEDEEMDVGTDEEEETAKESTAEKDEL

[8] = tested on: CTA1 secretion from intoxicated HeLa cells; assay type: cell-based
His6-tagged CTA1 = His6-tagged CTA1 (Vibrio cholerae serotype O1, UniProt P01555); assay type: binding
His6-tagged CTA1, sequence (P01555 19-212 limits assumed): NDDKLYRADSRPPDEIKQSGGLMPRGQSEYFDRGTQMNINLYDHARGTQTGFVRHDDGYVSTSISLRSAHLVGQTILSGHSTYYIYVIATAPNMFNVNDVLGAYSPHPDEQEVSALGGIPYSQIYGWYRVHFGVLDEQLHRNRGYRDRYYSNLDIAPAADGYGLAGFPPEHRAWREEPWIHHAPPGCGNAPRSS

[9] = cited from earlier work
thermolysin = thermolysin (Bacillus thermoproteolyticus, UniProt P00800); assay type: biochemical
thermolysin, sequence (P00800 233-548): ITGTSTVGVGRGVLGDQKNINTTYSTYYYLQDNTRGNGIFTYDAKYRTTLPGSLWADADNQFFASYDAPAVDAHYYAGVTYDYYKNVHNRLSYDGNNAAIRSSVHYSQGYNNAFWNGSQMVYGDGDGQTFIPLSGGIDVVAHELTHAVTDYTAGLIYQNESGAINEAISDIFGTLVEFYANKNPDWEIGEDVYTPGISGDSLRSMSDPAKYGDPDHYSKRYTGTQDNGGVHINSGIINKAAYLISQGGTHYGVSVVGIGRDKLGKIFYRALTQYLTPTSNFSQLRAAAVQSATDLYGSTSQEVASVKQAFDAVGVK

20S proteasome = assay type: biochemical
[10] = tested on: forskolin-stimulated adenylate cyclase activity; assay type: cell-based

catalytic A1 polypeptide of cholera toxin (CTA1), sequence (P01555 19-212 limits assumed): as the sequence (P01555 19-212 limits assumed) above

With `O=C([O-])CCCc1ccccc1.[Na+]` [PBA, sodium 4-phenylbutyrate] the “cytosolic pool of CTA1 by SPR” value [1] was “less CTA1 was found in the cytosol”, the “CT activity in the ileal loop test system” value (CT) was “blocks CT activity in the ileal loop test system” and the “Melting temperature (Tm) Fluorescence” value [2] was 37.5 °C and 38.5 °C and 41.0 °C. For the same compound, the “Melting temperature (Tm) Near UV” value [2] was 33.0 °C and 35.0 °C, the “protection against Shiga toxin” value (Shiga toxin) was “do not protect cultured cells against Shiga toxin” and the “CT activity against cultured cells” value [3] was “blocks CT activity against cultured cells in a dose-dependent manner”. The “concentration effective against CT intoxication of cultured cells” value [3] was 10 to 100 µM, the “transition temperature Far UV” value [4] was 33.0 °C and the “transition temperature Near UV” value [4] was 36.0 °C. The PBA serum levels [5] was 600-1,700 uM and the “binding to cell-binding B subunit of CT” value [6] was “does not bind”.

With N-ethylcarboxamidoadenosine [NECA] the “cytosolic CTA1 by Western blot” value [1] was “unaffected by NECA treatment”, the “cytosolic pool of CTA1 by SPR” value [1] was “response comparable to the response from cells intoxicated in the absence of drug treatment” and the “effect on GRP94 binding to CTA1” value [7] was “blocked by both GA and NECA”. For the same compound, the “CT intoxication (cAMP response)” value [3] was “same response to CT as the untreated cells”.

With brefeldin A [BfA] the “cytosolic pool of CTA1 by SPR” value [1] was “No signal” and the “CTA1 in the medium by SPR” value [8] was “could not detect an appreciable amount of CTA1 in the medium”.

With `OCC(O)CO` [glycerol] the “cytosolic pool of CTA1 by SPR” value [1] was “failed to generate a positive cytosolic signal for CTA1”, the “cytosolic pool of CTA1 by SPR, time course” value [1] was “could not be detected” and the “reduction in cytosolic CTA1” value [1] was 3 fold and 5 fold. The “total cellular pool of CTA1 present in the cytosolic fraction” value [1] was 7±4%, the “CTA1 secondary structure Tm” value (His6-tagged CTA1) was 39±0.5 °C and the “CTA1 tertiary structure transition temperature (Tm)” value (His6-tagged CTA1) was 39.5±1 °C. For the same compound, the “initial secondary structure retained at 37° C.” value (His6-tagged CTA1) was ~60%, the “initial tertiary structure retained at 37° C.” value (His6-tagged CTA1) was 58% and the “t1/2 of equilibration across the plasma membrane” value [9] was 5 min. The “thermolysin-mediated proteolysis of a-casein” value (thermolysin) was “did not prevent the thermolysin-mediated proteolysis of a-casein”, the “a-casein degradation by the 20S proteasome” value (20S proteasome) was “did not inhibit a-casein degradation by the 20S proteasome” and the “cAMP relative to cells treated with forskolin alone” value [10] was 105%. The “CT concentration for 50% maximal response” value [3] was 35 ng of CT/ml, the “CT intoxication (cAMP response)” value [3] was “resistant to CT” and the “CTA1 secreted into medium versus untreated cells” value [8] was “twice as much CTA1 as the untreated control cells”.
